Results as given in patent publication US20250002476A1, “AZOLE COMPOUNDS FOR CONTROLLING INVERTEBRATE PESTS” (FMC Corporation, priority 2021, published 2025).

Columns and labels:
Type in all cases: in vivo
[1] = test system: Corn Planthopper (Peregrinus maidis (Ashmead)); test: Test B: control of Corn Planthopper on sprayed corn plant; details: 144 h, nymphs, 6 days; for mortality at 50 ppm: sprayed at 50 ppm; for mortality at 10 ppm: sprayed at 10 ppm; for mortality at 250 ppm: sprayed at 250 ppm
Description: (§1) Test compounds were formulated using a solution containing 10% acetone, 90% water and 300 ppm Activator 90@ non-ionic surfactant (Loveland Products, Loveland, Colorado, USA). The formulated compounds were applied in 1 mL of liquid through an atomized nozzle positioned 1.27 cm (0.5 inches) above the top of each test unit. Test compounds were sprayed at the rates indicated, and each test was replicated three times.
For evaluating control of Corn Planthopper (Peregrinus maidis (Ashmead)) through contact and/or systemic means, the test unit consisted of a small open container with a 3-4-day-old corn (maize) plant inside. White sand was added to the top of the soil prior to application of the test compound.
Test compounds were formulated and sprayed at 250, 50 and 10 ppm. After spraying of the formulated test compound, the test units were allowed to dry for 1 h before they were post-infested with ˜15-20 nymphs (18-to-21-day-old). A black, screened cap was placed on the top of each test unit, and the test units were held for 6 days in a growth chamber at 22-24° C. and 50-70% relative humidity. Each test unit was then visually assessed for insect mortality.

[2] = test system: Green Peach Aphid (Myzus persicae (Sulzer)); test: Test D: control of Green Peach Aphid on sprayed radish plant; details: 144 h, pre-infested, 6 days; for mortality at 250 ppm: sprayed at 250 ppm; for mortality at 50 ppm: sprayed at 50 ppm
Description: as §1
For evaluating control of Green Peach Aphid (Myzus persicae (Sulzer)) through contact and/or systemic means, the test unit consisted of a small open container with a 12-15-day-old radish plant inside. Prior to compound application, each test unit was pre-infested by placing on a leaf of the test plant 30-40 aphids on a piece of leaf excised from a culture plant (cut-leaf method). The aphids moved onto the test plant as the leaf piece desiccated. After pre-infestation, the soil of the test unit was covered with a layer of sand.
Test compounds were formulated and sprayed at 250 and 50 ppm. After spraying of the formulated test compound, each test unit was allowed to dry for 1 hour and then a black, screened cap was placed on top. The test units were held for 6 days in a growth chamber at 19-21° C. and 50-70% relative humidity. Each test unit was then visually assessed for insect mortality.

[3] = test system: cotton melon aphid (Aphis gossypii (Glover)); test: Test E: control of cotton melon aphid on sprayed okra plant; details: 144 h, pre-infested, 6 days; for mortality at 50 ppm: sprayed at 50 ppm; for mortality at 10 ppm: sprayed at 10 ppm; for mortality at 250 ppm: sprayed at 250 ppm
Description: as §1
For evaluating control of cotton melon aphid (Aphis gossypii (Glover)) through contact and/or systemic means, the test unit consisted of a small open container with a 5-day-old okra plant inside. This was pre-infested with 30-40 insects on a piece of leaf according to the cut-leaf method, and the soil of the test unit was covered with a layer of sand.
Test compounds were formulated and sprayed at 250, 50, 10 and 2 ppm. After spraying, the test units were maintained in a growth chamber for 6 days at 19° C. and 70% relative humidity. Each test unit was then visually assessed for insect mortality.

[4] = test system: silverleaf whitefly (Bemisia argentifolii (Bellows and Perring)); test: Test F: control of silverleaf whitefly on sprayed soybean plant; details: 288 h, pre-infested (oviposition), 12 days; for mortality at 50 ppm: sprayed at 50 ppm; for mortality at 250 ppm: sprayed at 250 ppm
Description: as §1
For evaluating control of silverleaf whitefly (Bemisia argentifolii (Bellows and Perring)) through contact and/or systemic means, each test unit consisted of a small open container with a 5-7 day old soybean plant inside. This was pre-infested by placing test units into cages containing adult whiteflies so that oviposition on the leaves could occur. The adults were removed from the plants with an air-blast nozzle, and the test units were capped. The test units were then stored 2 to 3 days before spraying.
Test compounds were formulated and sprayed at 250 and 50 ppm. After spraying, the test units were maintained in a growth chamber for 12 days at 23° C. and 70% relative humidity. Each test unit was then visually assessed for insect mortality.

SMILES | mortality at 50 ppm [1] [%] | mortality at 50 ppm [3] [%] | mortality at 250 ppm [3] [%] | mortality at 250 ppm [1] [%] | also measured
CCC#CCn1cc(-c2cccc(C(F)(F)F)c2)nn1 [Compound 3, 1-(2-Pentyn-1-yl)-4-[3-(trifluoromethyl)phenyl]-1H-1,2,3-triazole] | ≥ 80 |  |  |  | 
CCC#CCn1nnc(-c2ccc(Cl)cc2)n1 [Compound 60, 5-(4-chlorophenyl)-2-(pent-2-yn-1-yl)-1,2,3,4-tetrazole] |  | ≥ 80 |  |  | mortality at 250 ppm [2]: ≥ 80%
CCC#CCn1nnc(-c2ccc(C(F)(F)F)cc2)n1 [Compound 64, 2-(2-Pentyn-1-yl)-5-[4-(trifluoromethyl)phenyl]-2H-tetrazole] |  |  |  |  | mortality at 50 ppm [2]: ≥ 80%; mortality at 10 ppm [3]: ≥ 80%; mortality at 10 ppm [1]: ≥ 80%
CCC#CCn1cc(-c2ccccc2)cn1 [Compound 114] |  |  | ≥ 80 | ≥ 80 | 
CCC#CCn1nnc(-c2ccc(C(F)(F)F)cn2)n1 [Compound 122] |  |  |  | ≥ 80 | 
CCC#CCn1cc(-c2ccc(C(F)(F)F)cn2)nn1 [Compound 123, 2-[1-(2-Pentyn-1-yl)-1H-1,2,3-triazol-4-yl]-5-(trifluoromethyl)pyridine] | ≥ 80 | ≥ 80 |  |  | 
CCC#CCn1ncc(-c2ccc(C(F)(F)F)cn2)n1 [Compound 124, 2-[2-(2-Pentyn-1-yl)-2H-1,2,3-triazol-4-yl]-5-(trifluoromethyl)pyridine] | ≥ 80 | ≥ 80 |  |  | mortality at 50 ppm [2]: ≥ 80%
CCC#CCn1cc(-c2ccc(C(F)(F)F)nc2)nn1 [Compound 125] |  |  |  | ≥ 80 | 
CCC#CCn1ncc(-c2ccc(C(F)(F)F)nc2)n1 [Compound 126, 5-[2-(2-Pentyn-1-yl)-2H-1,2,3-triazol-4-yl]-2-(trifluoromethyl)pyridine] |  |  |  |  | mortality at 50 ppm [2]: ≥ 80%; mortality at 10 ppm [3]: ≥ 80%; mortality at 10 ppm [1]: ≥ 80%
CCC#CCn1nnc(-c2ccsc2)n1 [Compound 129] |  |  | ≥ 80 |  | 
CCC#CCn1nnc(-c2cccs2)n1 [Compound 130] |  |  | ≥ 80 |  | 
CCC#CCn1ncc(-c2ccc(Cl)cn2)n1 [Compound 141] |  |  | ≥ 80 |  | mortality at 250 ppm [2]: ≥ 80%; mortality at 50 ppm [4]: ≥ 50%
CCC#CCn1cc(-c2ccc(F)cn2)nn1 [Compound 149] | ≥ 80 |  | ≥ 80 |  | 
CCC#CCn1ncc(-c2ccc(F)cn2)n1 [Compound 150] | ≥ 80 | ≥ 80 |  |  | mortality at 250 ppm [2]: ≥ 80%
CCC#CCn1cc(-c2cncc(F)c2)nn1 [Compound 154] |  |  | ≥ 80 | ≥ 80 | 
CCC#CCn1cc(-c2ccc(Cl)nc2)nn1 [Compound 156] |  |  | ≥ 80 |  | 
CCC#CCn1nnc(-c2ccc3ccccc3c2)n1 [Compound 168] | ≥ 80 | ≥ 80 |  |  | 
CCC#CCn1nnc(-c2cnc3ccccc3c2)n1 [Compound 169] |  | ≥ 80 |  | ≥ 80 | 
CCC#CCn1ncc(-c2cc(F)cc(C#N)c2)n1 [Compound 175, 3-Fluoro-5-[2-(2-pentyn-1-yl)-2H-1,2,3-triazol-4-yl]benzonitrile] | ≥ 80 | ≥ 80 |  |  | 
CCC#CCn1nnc(-c2cc(C(F)(F)F)ccn2)n1 [Compound 177] |  | ≥ 80 |  |  | 
CCC#CCn1nnc(-c2ccnc(C(F)(F)F)c2)n1 [Compound 188] |  | ≥ 80 | ≥ 80 |  | mortality at 250 ppm [2]: ≥ 80%; mortality at 10 ppm [1]: ≥ 80%
CCC#CCn1nnc(-c2cc3ccccc3o2)n1 [Compound 194] |  | ≥ 80 |  | ≥ 80 | 
CCC#CCn1ncc(-c2ccnc(C(F)(F)F)c2)n1 [Compound 197] | ≥ 80 | ≥ 80 |  |  | 
CCC#CCn1cc(-c2ccnc(C(F)(F)F)c2)nn1 [Compound 198] |  |  | ≥ 80 | ≥ 80 | 
CCC#CCn1ncc(-c2cc(C(F)(F)F)ccn2)n1 [Compound 203] |  | ≥ 80 |  | ≥ 80 | mortality at 250 ppm [2]: ≥ 80%

SMILES | mortality at 50 ppm [1] [%] | mortality at 50 ppm [3] [%] | mortality at 250 ppm [3] [%] | mortality at 250 ppm [1] [%] | also measured
CCC#CCn1ncc(-c2cncc(C(F)(F)F)c2)n1 [Compound 204, 3-[2-(2-Pentyn-1-yl)-2H-1,2,3-triazol-4-yl]-5-(trifluoromethyl)pyridine] | ≥ 80 |  |  |  | mortality at 50 ppm [2]: ≥ 80%; mortality at 10 ppm [3]: ≥ 80%
CCC#CCn1cc(-c2cncc(C(F)(F)F)c2)nn1 [Compound 205] |  |  | ≥ 80 | ≥ 80 | 
CCC#CCn1cc(-c2ccc(OC(F)(F)F)nc2)nn1 [Compound 206] |  |  |  | ≥ 80 | 
CCC#CCn1ncc(-c2ccc(OC(F)(F)F)nc2)n1 [Compound 207, 5-[2-(2-Pentyn-1-yl)-2H-1,2,3-triazol-4-yl]-2-(trifluoromethoxy)pyridine] | ≥ 80 | ≥ 80 |  |  | mortality at 50 ppm [2]: ≥ 80%
CCC#CCn1cc(-c2cc(C(F)(F)F)ccn2)nn1 [Compound 208] | ≥ 80 |  | ≥ 80 |  | 
CCC#CCn1cc(-c2cccc(C(F)(F)F)n2)nn1 [Compound 212] |  |  |  | ≥ 80 | 
CCC#CCn1ncc(-c2cccc(C(F)(F)F)n2)n1 [Compound 213] |  | ≥ 80 |  | ≥ 80 | mortality at 250 ppm [2]: ≥ 80%
CCC#CCn1ncc(-c2ccnc(C#N)c2)n1 [Compound 219] |  | ≥ 80 |  |  | 
CCC#CCn1nnc(-c2ccnc(C#N)c2)n1 [Compound 222] |  | ≥ 80 |  |  | 
CCC#CCn1nnc(-c2cc(OC)ccn2)n1 [Compound 223] |  |  | ≥ 80 |  | 
CCC#CCn1ncc(-c2cncc(C#N)c2)n1 [Compound 232] |  | ≥ 80 |  |  | 
CCC#CCn1cc(-c2cncc(C#N)c2)nn1 [Compound 233] |  |  | ≥ 80 |  | 
CCC#CCn1ncc(-c2cc(OC)ccn2)n1 [Compound 234] |  |  | ≥ 80 |  | 
CCC#CCn1nnc(-c2ccnc(OC)c2)n1 [Compound 236, 2-Methoxy-4-[2-(2-pentyn-1-yl)-2H-tetrazol-5-yl]pyridine] | ≥ 80 | ≥ 80 |  |  | mortality at 250 ppm [2]: ≥ 80%
CCC#CCn1ncc(-c2cccc(OC)n2)n1 [Compound 237] | ≥ 80 |  | ≥ 80 |  | 
CCC#CCn1cc(-c2cccc(C#N)n2)nn1 [Compound 249] |  |  | ≥ 80 |  | 
CCC#CCn1ncc(-c2cccc(C#N)n2)n1 [Compound 250] | ≥ 80 | ≥ 80 |  |  | 
CCC#CCn1nnc(-c2cccc(OC)n2)n1 [Compound 251] |  |  | ≥ 80 | ≥ 80 | 
CCC#CCn1ncc(-c2cncc(OC)c2)n1 [Compound 252] |  |  | ≥ 80 |  | 
CCC#CCn1cc(-c2cncc(OC)c2)nn1 [Compound 255] |  |  |  | ≥ 80 | 
CCC#CCn1nnc(-c2cc(OC)cc(C(F)(F)F)c2)n1 [Compound 286, 5-[3-Methoxy-5-(trifluoromethyl)phenyl]-2-(2-pentyn-1-yl)-2H-tetrazole] |  | ≥ 80 |  | ≥ 80 | mortality at 50 ppm [4]: ≥ 50%
COCC#CCn1ncc(-c2ccc(C(F)(F)F)cc2)n1 [Compound 299] |  |  |  |  | mortality at 250 ppm [4]: ≥ 50%
COCC#CCn1nnc(-c2ccc(C(F)(F)F)cc2)n1 [Compound 300] |  |  | ≥ 80 |  | mortality at 250 ppm [4]: ≥ 50%
CCC#CCn1nnc(-c2cc(C#N)ccn2)n1 [Compound 303] |  |  | ≥ 80 |  | 
CCC#CCn1nnc(-c2ccc(OC(F)F)cc2)n1 [Compound 311, 5-[4-(Difluoromethoxy)phenyl]-2-(2-pentyn-1-yl)-2H-tetrazole] | ≥ 80 | ≥ 80 |  |  | mortality at 50 ppm [4]: ≥ 50%
